Experimental findings from BindingDB's records for doi:10.1021/jm030398k (National Institute of Diabetes and Digestive and Kidney …, 2004) are described below.

Broadly, the IC50 is the concentration needed to halve the response being measured. Low values mean higher potency, high ones lower potency.

The target in the test is tyramine oxidase (microbial). Kind of test: Compound was evaluated for inhibition of Microbial tyramine oxidase; irreversible.

`NNC(=O)C1(c2ccccc2)CC1F` (stereo unspecified) [2-Fluoro-1-phenyl-cyclopropanecarboxylic acid hydrazide] had an IC50 of 20 µM.
